Assay results as given in EP2266622A2, “Prodrugs containing novel bio-cleavable linkers” (Piramal Life Sciences Limited, priority 2004, dated 2006).
Several values for one entry are separate records, joined by “and”; a condition that tells them apart may be missing. Identical values can stand only once. Like-named read-outs stand apart in the source and are kept apart here.

Experiments:
mucosal damage = conditions: rats, oral, 3 hours after administration
[1] = Oral pharmacokinetics (plasma salicylate by HPLC); conditions: rats, 35 mg/kg equivalent dose
[2] = system: carrageenan-induced rat paw edema; assay: Carrageenan-induced rat paw edema model; format: in vivo; conditions: 75 mg/kg equivalent dose of aspirin, p.o.
Method: Male or female Sprague-Dawley rats weighing 150-200 g were used in the study. The rats were fed normal standard laboratory chow and maintained under standard conditions (room temperature of 22 ± 2 °C; 50 ± 10 % relative humidity; artificial light 06:00 to 18:00). All experimental procedures mentioned below are approved by institutional animal research committees and were performed in accordance with standard guidelines for the treatment of animals.
Anti-inflammatory activity of test compounds was measured in carrageenan-induced rat paw edema model (Takeuchi et al., J. Pharmacol. Exp. Ther. 1998, 286 (1), 115-121). […] We have not yet evaluated I-C1-NOPD5Bin this efficacy test.

[3] = In vitro plasma stability; conditions: rat plasma at 37 °C, 30 minutes incubation, HPLC analysis
Method: HPLC: Waters Allience analytical HPLC equipped with 2996 PDA detector and Empower software were used to analyze the samples.
HPLC Column: Waters X-Terra RP-18 analytical column, 150 X 3.9 mm, 5 .
HPLC Method: Flow: 1 mL/min, detecter set at 210 nm and at Maxplot (210-400 nm range). Solvent A: Acetonitrile; Solvent B: 0.1% TFA in water. Elution method: A linear gradient of 0-100% A.
The compounds were extracted back into acetonitrile with rigorous vortex.

clonic seizures [4] = assay: Test 1: Subcutaneous Metrazol Seizure Threshold Test (scMET), mice i.p.; format: in vivo; conditions: class symbol = dose
Method: (§1) Most of the prodrugs and mutual prodrugs of anticonvulsants described in this invention were evaluated at National Institute of Neurological Disorders and Stroke (NINDS), National Institute of Health (NIH), under their Antiepileptic Screening Program (ASP).
(§2) Test 1 is an initial screening for anticonvulsant activity in the Maximal Electroshock Test (MES) and Subcutaneous Metrazol Seizure Threshold Test (scMET) models combined with an initial assessment of toxicity (TOX) in mice via i.p. injection (see further explanation below). The data for each condition is presented as N/F, where N = number of animals protected from seizure and F = number of animals tested. For test of toxicity, N = number of animals displaying toxic effects and F = number of animals tested. Any deaths occurring during the test were recorded.
(§3) Subcutaneous Metrazol Seizure Threshold Test (scMET): Subcutaneous injection of the convulsant metrazol produces clonic seizures in laboratory animals. […] Animals were pretreated with various doses of the test compound given by i.p. injection. At the previously determined Time to Peak Effect (TPE) of the test compound, the dose of metrazol which will produce convulsions in 97% of animals (CD97: 85 mg/kg in mice) was injected into a loose fold of skin in the midline of the neck. The animals were placed in isolation cages to minimize stress and observed for the next 30 minutes for the presence or absence of a seizure. An episode of clonic spasms, approximately […], of the fore and/or hind limbs, jaws, or vibrissae is taken as the end point.

[5] = system: minimal muscular or neurological impairment; assay: Test 1: Acute toxicity, minimal motor impairment (rotorod), mice i.p.; format: in vivo; conditions: for Rotorod Toxicity: class symbol = dose
Method: as §1, §2

clonic seizures [6] = assay: Test 3: scMET, rats p.o.; format: in vivo; conditions: 50 mg/kg
Method: as §3
(§4) Rats received test compounds orally.
(§5) Table 1: Primary Screening (Test 1) data for Anticonvulsant Activity and Neurotoxicity in Mice (test compound administered i.p.)

MES-induced seizures [7] = assay: Test 3: MES quantification (time to peak effect, ED50), rats p.o.; format: in vivo; conditions: for Biological Response MES (number of animal protected/number of animal tested): time 6 h
Neurological toxicity [8] = assay: Test 3: neurological toxicity, rats p.o.; format: in vivo
Source text: as §4, §5

MES-induced seizures [9] = assay: Test 2: MES, rats p.o.; format: in vivo; conditions: 30 mg/kg
Source text: (§6) Maximal Electroshock Test (MES): The MES is a model for generalized tonic-clonic seizure and provides an indication of a compound's ability to prevent seizure spread when all neuronal circuits in the brain are maximally active. These seizures are highly reproducible and electro-physiologically consistent with human seizures. For all tests based on MES convulsions, 60 Hz of alternating current (50 mA in mice) is delivered for […] by corneal electrodes, which have been primed with an electrolyte solution containing an anesthetic agent (0.5% tetracaine hydrochloride). Mice were tested at various intervals following doses of 30, 100 and 300 mg/kg of test compound given by i.p. injection of a volume of 0.01 mL/g. Other doses can be used if indicated by previously known pharmacology. An animal is considered "protected" from MES-induced seizures upon abolition of the hind-limb tonic extensor component of the seizure.
as §4

MES-induced seizures [10] = assay: Test 1: Maximal Electroshock Test (MES), mice i.p.; format: in vivo; conditions: for MES: class symbol = dose
Method: as §1, §2, §6

Neurological toxicity [11] = assay: Test 2: neurological toxicity, rats p.o.; format: in vivo; conditions: 30 mg/kg
Source text: as §4

SMILES: CC(=O)Oc1ccccc1C(=O)[N-]C(=O)OCCSSCCO[N+](=O)[O-].[Na+] [I-C1-NOPD5B]
- ulcer development (in words) (mucosal damage; 200 mg/kg equivalent doses): none of the animals treated with the test compounds showed any signs of development of ulcers
- salicylate release profile (in words) [1]: released in a sustained and controlled manner starting from 1 hour through 12 hours

SMILES: CC(=O)Oc1ccccc1C(=O)NC(=O)OCCSSCCO[N+](=O)[O-] [I-C1-NOPD5A]
- anti-inflammatory activity (in words) [2]: negligible anti-inflammatory activity at any time point tested
- ulcer development (in words) (mucosal damage; 200 mg/kg equivalent doses): none of the animals treated with the test compounds showed any signs of development of ulcers
- release of parent drug / conversion to salicylate [3]: converting to the expected metabolite (salicylate)

SMILES: CCOC(=O)CC1(CNC(=O)OCCSSCCOC(=O)Nc2nnc(-c3cccc(Cl)c3Cl)c(N)n2)CCCCC1 [I-AA-MPD12]
- ScMET (clonic seizures [4]; 0.5 h): - (- = no activity or no toxicity at 300 mg/kg)
- ScMET (clonic seizures [4]; 4.0 h): - (- = no activity or no toxicity at 300 mg/kg)
- toxicity (Test 1, in words) [5]: no or mild toxicity
- Rotorod Toxicity ([5]; 0.5 h): - (- = no activity or no toxicity at 300 mg/kg)
- Rotorod Toxicity ([5]; 4.0 h): - (- = no activity or no toxicity at 300 mg/kg)
- Time to Peak Effect ScMET (number of animal protected/number of animal tested) (clonic seizures [6]; 1.0 h): 1/4
- Time to Peak Effect ScMET (number of animal protected/number of animal tested) (clonic seizures [6]; 2.0 h): 0/4
- Time to Peak Effect ScMET (number of animal protected/number of animal tested) (clonic seizures [6]; 4.0 h): 0/4
- Time to Peak Effect ScMET (number of animal protected/number of animal tested) (clonic seizures [6]; 6.0 h): 1/4
- Time to Peak Effect ScMET (number of animal protected/number of animal tested) (clonic seizures [6]; 8.0 h): 2/4
- Time to Peak Effect ScMET (number of animal protected/number of animal tested) (clonic seizures [6]; 24 h): 0/4
- Time to Peak Effect MES (number of animal protected/number of animal tested) (MES-induced seizures [7]; 15 mg/kg, 6.0 h): 2/4
- Time to Peak Effect MES (number of animal protected/number of animal tested) (MES-induced seizures [7]; 15 mg/kg, 8.0 h): 1/4
- Time to Peak Effect MES (number of animal protected/number of animal tested) (MES-induced seizures [7]; 30 mg/kg, 0.5 h): 0/4
- Time to Peak Effect MES (number of animal protected/number of animal tested) (MES-induced seizures [7]; 30 mg/kg, 1.0 h): 0/4
- Time to Peak Effect MES (number of animal protected/number of animal tested) (MES-induced seizures [7]; 30 mg/kg, 2.0 h): 1/4
- Time to Peak Effect MES (number of animal protected/number of animal tested) (MES-induced seizures [7]; 30 mg/kg, 4.0 h): 3/4
- Time to Peak Effect MES (number of animal protected/number of animal tested) (MES-induced seizures [7]; 30 mg/kg, 6.0 h): 4/4
- Time to Peak Effect MES (number of animal protected/number of animal tested) (MES-induced seizures [7]; 30 mg/kg, 8.0 h): 4/4
- Time to Peak Effect MES (number of animal protected/number of animal tested) (MES-induced seizures [7]; 30 mg/kg, 24 h): 2 out of 4 and 2/4
- potency compared with parent drug lamotrigine (in words) (MES-induced seizures [7]; MES): less potent than lamotrigine
- ED50 (MES-induced seizures [7]; MES model, at the compound's time of peak effect (4, 6 or 8 h)): 17 mg/kg
- duration of protection (in words) (MES-induced seizures [7]; MES, 30 mg/kg, up to 24 h): significant extension in the duration of protection
- time to peak effect (MES-induced seizures [7]; MES, dose of 30 mg/kg): 6.0 to 8.0 h
- Biological Response MES (number of animal protected/number of animal tested) (MES-induced seizures [7]; dose 7.5 mg/kg): 0/8
- Biological Response MES (number of animal protected/number of animal tested) (MES-induced seizures [7]; dose 15 mg/kg): 5/8
- Biological Response MES (number of animal protected/number of animal tested) (MES-induced seizures [7]; dose 30 mg/kg): 7/8
- Biological Response MES (number of animal protected/number of animal tested) (MES-induced seizures [7]; dose 60 mg/kg): 7/8
- toxicity (in words) (Neurological toxicity [8]; 50 mg/kg): none of the animals exhibited toxicity
- Toxicity (number of animals exhibiting toxicity/number of animals tested) (Neurological toxicity [8]; 50 mg/kg, 1.0 h): 0/4 (5 0)
- Toxicity (number of animals exhibiting toxicity/number of animals tested) (Neurological toxicity [8]; 50 mg/kg, 2.0 h): 0/4 (50)
- Toxicity (number of animals exhibiting toxicity/number of animals tested) (Neurological toxicity [8]; 50 mg/kg, 4.0 h): 0/4 (50)
- Toxicity (number of animals exhibiting toxicity/number of animals tested) (Neurological toxicity [8]; 50 mg/kg, 6.0 h): 0/4 (50)
- Toxicity (number of animals exhibiting toxicity/number of animals tested) (Neurological toxicity [8]; 50 mg/kg, 8.0 h): 0/4 (50)
- Toxicity (number of animals exhibiting toxicity/number of animals tested) (Neurological toxicity [8]; 50 mg/kg, 24 h): 0/4 (50)
- toxicity (in words) (Neurological toxicity [8]; 100 mg/kg): one of eight animals exhibited mild ataxia
- Toxicity (number of animals exhibiting toxicity/number of animals tested) (Neurological toxicity [8]; 100 mg/kg, 8.0 h, mild ataxia only (footnote h)): 1/8 (100)^h
- MES (number of animal protected/number of animal tested) (MES-induced seizures [9]; 0.50 h): 0/4
- MES (number of animal protected/number of animal tested) (MES-induced seizures [9]; 1.00 h): 0/4
- MES (number of animal protected/number of animal tested) (MES-induced seizures [9]; 2.00 h): 1/4
- MES (number of animal protected/number of animal tested) (MES-induced seizures [9]; 4.00 h): 3/4
- activity in MES (Test 1, in words) (MES-induced seizures [10]): active in MES
- MES (number of animal protected/number of animal tested) (MES-induced seizures [10]; 100 mg/kg (++), 4.0 h): 3/3
- MES (number of animal protected/number of animal tested) (MES-induced seizures [10]; 100 mg/kg (++), 6 hours after dosing): 1/3
- MES (number of animal protected/number of animal tested) (MES-induced seizures [10]; 300 mg/kg (+), 4.0 h): 1/1
- MES (MES-induced seizures [10]; 0.5 h): - (- = no activity or no toxicity at 300 mg/kg)
- MES (MES-induced seizures [10]; at 6 hours after dosing (footnotes g, m)): ++ (++ = activity or toxicity at 100 mg/kg)
- Toxicity (number of animals exhibiting toxicity/number of animals tested) (Neurological toxicity [11]; 0.50 h): 0/4
- Toxicity (number of animals exhibiting toxicity/number of animals tested) (Neurological toxicity [11]; 1.00 h): 0/4
- Toxicity (number of animals exhibiting toxicity/number of animals tested) (Neurological toxicity [11]; 2.00 h): 0/4
- Toxicity (number of animals exhibiting toxicity/number of animals tested) (Neurological toxicity [11]; 4.00 h): 0/4

SMILES: CC(=O)Oc1ccccc1C(=O)NCCSSCCO[N+](=O)[O-] [I-C1-NOPD6]
- ulcer development (in words) (mucosal damage; 100 mg/kg equivalent doses): none of the animals treated with the test compounds showed any signs of development of ulcers
- prodrug or salicylate found in plasma ([1]; any time point up to 24 hrs): neither the prodrug nor the salicylate was found in the plasma

SMILES: CC(=O)Oc1ccccc1C(=O)OCCSSCCO[N+](=O)[O-] [I-C1-NOPD4]
- anti-inflammatory activity (in words) [2]: significant activity during the first two hours after drug administration
- ulcer development (in words) (mucosal damage; 100 mg/kg equivalent doses): none of the animals treated with the test compounds showed any signs of development of ulcers
- release of parent drug / conversion to salicylate [3]: converting to the expected metabolite (salicylate)
